Measured values taken from patent US20210380548A1, “Fused [1,2,4]Thiadiazine Derivatives Which Act as KAT Inhibitors of the MYST Family” (CTxT Pty Limited, priority 2017, published 2021).

Key:
TIP60-KAT5 [1] = biological target: T1, TIP60-KAT5 (Homo sapiens, UniProt Q92993); test: Revised Acetyltransferase Biochemical Assay, KAT5; conditions: 10 nM KAT5, 1 μM AcCoA, 100 nM histone H4, 90 min
T1 construct: encoding amino acid residues 2 to 461 (Uniprot Q92993-2) of human KAT5 isoform; made in house; host or cells: E. coli BL21 DE3

MOZ-KAT6A [2] = biological target: T2, MOZ-KAT6A (Homo sapiens, UniProt Q92794, A567V); test: Revised Acetyltransferase Biochemical Assay, KAT6A; conditions: Table 8 (MOZ-KAT6A), 1 μM Acetyl coenzyme A
T2 construct: encoding amino acid residues 507 to 778 (Uniprot Q92794-1) of human KAT6A; made in house; host or cells: E. coli BL21 DE3

MOF-KAT8 = biological target: T3, MOF-KAT8 (Homo sapiens, UniProt Q9H7Z6); test: Revised Acetyltransferase Biochemical Assay, KAT8
T3 sequence (Q9H7Z6 177-447): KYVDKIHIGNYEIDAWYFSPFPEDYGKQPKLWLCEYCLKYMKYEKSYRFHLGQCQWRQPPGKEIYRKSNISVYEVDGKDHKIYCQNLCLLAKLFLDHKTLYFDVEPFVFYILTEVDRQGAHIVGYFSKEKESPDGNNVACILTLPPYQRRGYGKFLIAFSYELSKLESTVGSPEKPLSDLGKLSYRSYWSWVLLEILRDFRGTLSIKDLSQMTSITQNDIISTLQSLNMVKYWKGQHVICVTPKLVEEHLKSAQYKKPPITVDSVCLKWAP

TIP60-KAT5 [3] = biological target: T1, TIP60-KAT5; test: Acetyltransferase biochemical assay (AlphaScreen), KAT5; conditions: Table 1 (TIP60-KAT5); 0.4 μM Acetyl coenzyme A, histone H4, 10 nM enzyme
HBO-KAT7 [4] = biological target: T4, HBO-KAT7 (Homo sapiens, UniProt O95251); test: Revised Acetyltransferase Biochemical Assay, KAT7; conditions: Table 9 (HBO-KAT7), 1 μM Acetyl coenzyme A
T4 construct: encoding amino acid residues 325 to 611 (Uniprot 095251-1) of human KAT7; made in house; host or cells: E. coli BL21 DE3 RIL

MOZ-KAT6A [5] = biological target: T2, MOZ-KAT6A; test: Acetyltransferase biochemical assay (AlphaScreen), KAT6A; conditions: Table 2 (MOZ-KAT6A); 10 μM Acetyl coenzyme A, histone H3.1, 5 nM enzyme
HBO-KAT7 [6] = biological target: T4, HBO-KAT7; test: Acetyltransferase biochemical assay (AlphaScreen), KAT7; conditions: Table 3 (HBO-KAT7); 0.4 μM Acetyl coenzyme A, histone H3.1, 40 nM enzyme

T2 sequence (Q92794 507-778 A567V limits assumed): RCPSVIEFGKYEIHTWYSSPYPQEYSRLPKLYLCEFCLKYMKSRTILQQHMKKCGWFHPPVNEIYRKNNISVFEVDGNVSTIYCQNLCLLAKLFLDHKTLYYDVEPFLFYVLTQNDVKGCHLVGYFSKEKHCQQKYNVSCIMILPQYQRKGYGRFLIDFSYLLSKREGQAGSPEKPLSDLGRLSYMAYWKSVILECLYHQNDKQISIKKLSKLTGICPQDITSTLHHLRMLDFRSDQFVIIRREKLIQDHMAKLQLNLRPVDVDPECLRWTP
T4 sequence (O95251 with tags, fused parts or gaps): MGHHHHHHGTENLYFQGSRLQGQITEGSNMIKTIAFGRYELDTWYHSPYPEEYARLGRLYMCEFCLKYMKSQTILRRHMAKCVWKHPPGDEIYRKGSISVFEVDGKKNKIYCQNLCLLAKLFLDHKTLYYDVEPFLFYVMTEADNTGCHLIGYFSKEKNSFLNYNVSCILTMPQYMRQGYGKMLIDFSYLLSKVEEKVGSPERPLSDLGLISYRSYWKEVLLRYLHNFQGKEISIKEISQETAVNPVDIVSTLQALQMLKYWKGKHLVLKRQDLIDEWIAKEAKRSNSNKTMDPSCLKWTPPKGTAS
T1 sequence (Q92993 2-461 isoform Q92993-2): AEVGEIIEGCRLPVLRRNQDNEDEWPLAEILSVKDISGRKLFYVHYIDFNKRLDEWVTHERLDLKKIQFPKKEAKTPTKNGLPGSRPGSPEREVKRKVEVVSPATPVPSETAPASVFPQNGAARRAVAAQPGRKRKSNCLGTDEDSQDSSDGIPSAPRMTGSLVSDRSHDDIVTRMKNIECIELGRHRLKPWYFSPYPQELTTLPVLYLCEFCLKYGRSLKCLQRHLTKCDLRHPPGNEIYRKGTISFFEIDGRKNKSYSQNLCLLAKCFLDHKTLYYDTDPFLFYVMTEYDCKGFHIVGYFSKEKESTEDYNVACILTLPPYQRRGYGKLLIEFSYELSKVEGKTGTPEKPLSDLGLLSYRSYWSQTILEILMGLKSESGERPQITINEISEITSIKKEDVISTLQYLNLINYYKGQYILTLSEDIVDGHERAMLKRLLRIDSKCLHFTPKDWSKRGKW

Structure (SMILES)	IC50 (TIP60-KAT5 [1])	IC50 (MOZ-KAT6A [2])	IC50 (MOF-KAT8)	IC50 (TIP60-KAT5 [3])	IC50 (HBO-KAT7 [4])	IC50 (MOZ-KAT6A [5])	IC50 (HBO-KAT7 [6])
O=C(NCC(CO)c1ccccc1)C1=Nc2ccccc2S(=O)(=O)N1 (stereo not shown) [Example 2, N-(3-Hydroxy-2-phenylpropyl)-2H-benzo[e][1,2,4]thiadiazine-3-carboxamide 1,1-dioxide]	60.7 µM	5.14 µM	> 125 µM	> 125 µM	28 µM	38.1 µM	–
O=C(NCC(CCO)c1ccccc1)C1=Nc2ccccc2S(=O)(=O)N1 (stereo not shown) [Example 3, N-(4-Hydroxy-2-phenylbutyl)-2H-benzo[e][1,2,4]thiadiazine-3-carboxamide 1,1-dioxide]	99.6 µM	4.95 µM	12.2 µM	96.5 µM	49.9 µM	7.66 µM	–
COc1ccc2c(c1)S(=O)(=O)NC(C(=O)NCC(c1ccccc1)c1ccccc1)=N2 [Example 19, N-(2,2-diphenylethyl)-7-methoxy-2H-benzo[e][1,2,4]thiadiazine-3-carboxamide 1,1-dioxide]	14.6 µM	0.27 µM	> 125 µM	33.2 µM	1 µM	1.35 µM	–
COC(=O)c1ccc2c(c1)S(=O)(=O)NC(C(=O)NCC(c1ccccc1)c1ccccc1)=N2 [Example 20]	13.8 µM	0.49 µM	62.8 µM	29.5 µM	1.25 µM	6.05 µM	–
O=C(NCCc1ccccc1O)C1=Nc2ccccc2S(=O)(=O)N1 [Example 29, N-(2-Hydroxyphenethyl)-2H-benzo[e][1,2,4]thiadiazine-3-carboxamide 1,1-dioxide]	–	–	–	> 125 µM	–	28.6 µM	84.4 µM
O=C(NCCc1ccccc1I)C1=Nc2ccccc2S(=O)(=O)N1 [Example 31, N-(2-Iodophenethyl)-2H-benzo[e][1,2,4]thiadiazine-3-carboxamide 1,1-dioxide]	–	–	–	15.1 µM	–	8.23 µM	5.84 µM
O=C(NCCc1ccccc1-c1cccnc1)C1=Nc2ccccc2S(=O)(=O)N1 [Example 34, N-(2-(Pyridin-3-yl)phenethyl)-2H-benzo[e][1,2,4]thiadiazine-3-carboxamide 1,1-dioxide]	70.3 µM	5.78 µM	–	> 125 µM	11.5 µM	51.6 µM	60.3 µM
N#Cc1ccccc1CCNC(=O)C1=Nc2ccccc2S(=O)(=O)N1 [Example 35, N-(2-Cyanophenethyl)-2H-benzo[e][1,2,4]thiadiazine-3-carboxamide 1,1-dioxide]	–	–	–	> 125 µM	–	59.9 µM	31.6 µM
O=C(NCC(c1ccccc1)n1cccc1)C1=Nc2ccccc2S(=O)(=O)N1 (stereo not shown) [Example 54, N-(2-phenyl-2-(1H-pyrrol-1-yl)ethyl)-2H-benzo[e][1,2,4]thiadiazine-3-carboxamide 1,1-dioxide]	–	–	–	57.9 µM	–	8.87 µM	4.01 µM
O=C(NCC(c1ccccc1F)n1cccc1)C1=Nc2ccccc2S(=O)(=O)N1 (stereo not shown) [Example 55, N-(2-(2-fluorophenyl)-2-(1H-pyrrol-1-yl)ethyl)-2H-benzo[e][1,2,4]thiadiazine-3-carboxamide 1,1-dioxide]	–	–	–	36.5 µM	–	5.66 µM	4.51 µM
O=C(NCC(c1ccccc1)c1nc(CO)no1)C1=Nc2ccc(I)cc2S(=O)(=O)N1 (stereo not shown) [Example 59, N-(2-(3-(hydroxymethyl)-1,2,4-oxadiazol-5-yl)-2-phenylethyl)-7-iodo-2H-benzo[e][1,2,4]thiadiazine-3-carboxamide 1,1-dioxide]	0.721 µM	0.032 µM	26.8 µM	–	0.403 µM	–	–
O=C(NCCc1ccccn1)C1=Nc2ccc(Br)cc2S(=O)(=O)N1 [Example 79]	–	–	–	87.8 µM	–	35.4 µM	29.5 µM
O=C(NCCc1cccnc1)C1=Nc2ccc(Br)cc2S(=O)(=O)N1 [Example 80]	–	–	–	> 125 µM	–	58.8 µM	104 µM
O=C(NCC(c1ccccc1)c1ncco1)C1=Nc2cnccc2S(=O)(=O)N1 (stereo not shown) [Example 98]	–	–	–	> 125 µM	–	36.1 µM	68.6 µM
O=C(NCC(c1ccccc1)c1ncco1)C1=Nc2ncccc2S(=O)(=O)N1 (stereo not shown) [Example 99]	–	–	–	> 125 µM	–	15.8 µM	9.16 µM
Nc1ccc(CCNC(=O)C2=Nc3ccc(I)cc3S(=O)(=O)N2)cc1 [Example 100]	–	–	–	40.5 µM	–	41.7 µM	112 µM

Structure (SMILES)	IC50 (TIP60-KAT5 [1])	IC50 (MOZ-KAT6A [2])	IC50 (MOF-KAT8)	IC50 (TIP60-KAT5 [3])	IC50 (HBO-KAT7 [4])	IC50 (MOZ-KAT6A [5])	IC50 (HBO-KAT7 [6])
O=C(NCCc1cccc(O)c1)C1=Nc2ccc(I)cc2S(=O)(=O)N1 [Example 102]	–	–	–	27.1 µM	–	10.6 µM	60.2 µM
O=C(NCCc1ccccn1)C1=Nc2ccc(I)cc2S(=O)(=O)N1 [Example 107]	–	–	–	20.8 µM	–	12 µM	23.3 µM
O=C(NCCc1cccnc1)C1=Nc2ccc(I)cc2S(=O)(=O)N1 [Example 108]	–	–	–	77.7 µM	–	11.6 µM	50.1 µM
COC(=O)C(CNC(=O)C1=Nc2ccccc2S(=O)(=O)N1)c1ccccc1 (stereo not shown) [Example 112, Methyl 3-(1,1-dioxido-2H-benzo[e][1,2,4]thiadiazine-3-carboxamido)-2-phenylpropanoate]	–	–	–	18.5 µM	–	4.58 µM	4.11 µM
O=C(NCCc1ccccc1C(F)(F)F)C1=Nc2ccc(I)cc2S(=O)(=O)N1 [Example 118]	0.208 µM	0.046 µM	> 125 µM	2.29 µM	0.412 µM	–	3.02 µM
O=C(NCC(c1ccccc1)c1ncco1)C1=Nc2ccc(C(F)(F)F)cc2S(=O)(=O)N1 (stereo not shown) [Example 120]	0.224 µM	0.017 µM	41.5 µM	1.24 µM	0.14 µM	–	3.52 µM
COC(=O)NC(CNC(=O)C1=Nc2ccccc2S(=O)(=O)N1)c1ccccc1 (stereo not shown) [Example 129]	58.3 µM	0.25 µM	> 125 µM	> 125 µM	24.8 µM	–	> 125 µM
O=C(NCC(c1ccccc1)c1ncco1)C1=Nc2ccc(-c3cscn3)cc2S(=O)(=O)N1 (stereo not shown) [Example 135]	0.646 µM	0.047 µM	–	3.13 µM	0.419 µM	0.168 µM	2.53 µM
CS(=O)(=O)Nc1ccc2c(c1)S(=O)(=O)NC(C(=O)NCC(c1ccccc1)c1ncco1)=N2 (stereo not shown) [Example 153, 7-(Methylsulfonamido)-N-(2-(oxazol-2-yl)-2-phenylethyl)-2H-benzo[e][1,2,4]thiadiazine-3-carboxamide 1,1-dioxide]	3.37 µM	0.054 µM	20.1 µM	38.7 µM	0.672 µM	–	3.41 µM
O=C(NCC(c1ncco1)c1ccccc1CO)C1=Nc2ccccc2S(=O)(=O)N1 (stereo not shown) [Example 157]	> 125 µM	8.8 µM	> 125 µM	–	22.3 µM	–	–
O=C(NCC(c1cccc(-c2ccccc2)c1)c1ncco1)C1=Nc2ccccc2S(=O)(=O)N1 (stereo not shown) [Example 158]	26.8 µM	1.73 µM	30.7 µM	–	5.46 µM	–	–
O=C(NCC(c1cccc(I)c1)c1ncco1)C1=Nc2ccccc2S(=O)(=O)N1 (stereo not shown) [Example 160, N-(2-(3-iodophenyl)-2-(oxazol-2-yl)ethyl)-2H-benzo[e][1,2,4]thiadiazine-3-carboxamide 1,1-dioxide]	13.2 µM	0.471 µM	4.89 µM	–	1.66 µM	–	–
O=C(NCC(c1ncco1)c1ccccc1-c1ccccc1)C1=Nc2ccccc2S(=O)(=O)N1 (stereo not shown) [Example 161]	9.16 µM	0.269 µM	23 µM	–	4.39 µM	–	–
CC(CNC(=O)C1=Nc2ccccc2S(=O)(=O)N1)(c1ccccc1)c1ccccc1 [Example 206]	13.7 µM	1.39 µM	–	36.8 µM	1.21 µM	9.64 µM	7.17 µM
N#Cc1cccc(C(CNC(=O)C2=Nc3ccccc3S(=O)(=O)N2)c2ncco2)c1 (stereo not shown) [Example 227, N-(2-(3-Cyanophenyl)-2-(oxazol-2-yl)ethyl)-2H-benzo[e][1,2,4]thiadiazine-3-carboxamide 1,1-dioxide]	98.7 µM	1.36 µM	> 125 µM	–	4.49 µM	–	–
O=C(NCC(F)(F)c1ccccc1OC(F)F)C1=Nc2ccc(Cl)cc2S(=O)(=O)N1 [Example 232, 7-chloro-N-(2-(2-(difluoromethoxy)phenyl)-2,2-difluoroethyl)-2H-benzo[e][1,2,4]thiadiazine-3-carboxamide 1,1-dioxide]	2.74 µM	0.252 µM	35 µM	–	0.393 µM	–	–
